Reference: PubChem BioAssay AID330 (DTP/NCI, 2004)
Several values for one entry are separate records, joined by “and”; a condition that tells them apart may be missing. Equal entries are not always repeated. Toxic doses and inconclusive results are not listed.

System: P388 leukemia ip, CD2F1 mice, survival T/C
Experiment: NCI In Vivo Anticancer Drug Screen. Data for tumor model P388 Leukemia (intraperitoneal) in CD2F1 (CDF1) mice
Details: endpoint: median survival time, higher = longer survival
Procedure, shortened: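 Mice carrying the transplanted tumor received test compound or vehicle. Survival was recorded in each group, and the value is the treated-group measurement divided by that of the vehicle-treated control group.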

[1] = dose: 50.0 mg/kg/injection, schedule: Q01DX005 (ip), vehicle: saline
[2] = dose: 100.0 mg/kg/injection, schedule: Q01DX005 (ip), vehicle: saline
[3] = dose: 200.0 mg/kg/injection, schedule: Q01DX005 (ip), vehicle: saline
[4] = dose: 12.5 mg/kg/injection, schedule: Q01DX009 (ip), vehicle: saline
[5] = dose: 25.0 mg/kg/injection, schedule: Q01DX009 (ip), vehicle: saline
[6] = dose: 50.0 mg/kg/injection, schedule: Q01DX009 (ip), vehicle: saline
[7] = dose: 100.0 mg/kg/injection, schedule: Q01DX009 (ip), vehicle: saline with Tween-80
[8] = dose: 200.0 mg/kg/injection, schedule: Q04DX003 (ip), vehicle: saline with Tween-80
[9] = dose: 50.0 mg/kg/injection, schedule: Q01DX009 (ip), vehicle: Klucel (hydroxypropylcellulose) (HPC)
[10] = dose: 100.0 mg/kg/injection, schedule: Q01DX009 (ip), vehicle: Klucel (hydroxypropylcellulose) (HPC)
[11] = dose: 100.0 mg/kg/injection, schedule: Q01DX001 (ip), vehicle: saline with Tween-80
[12] = dose: 200.0 mg/kg/injection, schedule: Q01DX001 (ip), vehicle: saline with Tween-80
[13] = dose: 60.0 mg/kg/injection, schedule: Q01DX005 (ip), vehicle: saline with Tween-80
[14] = dose: 120.0 mg/kg/injection, schedule: Q01DX005 (ip), vehicle: saline with Tween-80
[15] = dose: 100.0 mg/kg/injection, schedule: Q04DX003 (ip), vehicle: Klucel (hydroxypropylcellulose) (HPC)
[16] = dose: 200.0 mg/kg/injection, schedule: Q04DX003 (ip), vehicle: Klucel (hydroxypropylcellulose) (HPC)
[17] = dose: 50.0 mg/kg/injection, schedule: Q01DX005 (ip), vehicle: Klucel (hydroxypropylcellulose) (HPC)
[18] = dose: 100.0 mg/kg/injection, schedule: Q01DX005 (ip), vehicle: Klucel (hydroxypropylcellulose) (HPC)
[19] = dose: 50.0 mg/kg/injection, schedule: Q01DX009 (ip), vehicle: saline with Tween-80
[20] = dose: 200.0 mg/kg/injection, schedule: Q01DX009 (ip), vehicle: saline with Tween-80
[21] = dose: 100.0 mg/kg/injection, schedule: Q04DX003 (ip), vehicle: saline with Tween-80
[22] = dose: 100.0 mg/kg/injection, schedule: Q04DX002 (ip), vehicle: saline with Tween-80
[23] = dose: 200.0 mg/kg/injection, schedule: Q04DX002 (ip), vehicle: saline with Tween-80
[24] = dose: 400.0 mg/kg/injection, schedule: Q04DX002 (ip), vehicle: saline with Tween-80

CC1Nc2nc(N)[nH]c(=O)c2NC1C (stereo not given)
T/C (dose: 25.0 mg/kg/injection, schedule: Q01DX005 (ip), vehicle: saline): 97 % of control
T/C [1]: 100 % of control and 97 % of control
T/C [2]: 101 % of control and 97 % of control
T/C [3]: 101 % of control and 95 % of control

CNC(=O)OC1CC2CCCCC2C([N+](C)(C)C)C1 (stereo not given)
T/C [4]: 105 % of control
T/C [5]: 112 % of control
T/C [6]: 100 % of control and 106 % of control

CCOC(=O)c1[nH]cnc1/N=N/N(C)C
T/C [7]: 90 % of control
T/C (dose: 150.0 mg/kg/injection, schedule: Q04DX003 (ip), vehicle: saline with Tween-80): 120 % of control
T/C [8]: 150 % of control

CCOC(=O)c1cc(Cl)cc2c(=O)c3c(O)c4[nH]c5c(C(=O)OCC)cc(Cl)cc5c(=O)c4c(O)c3[nH]c12
T/C [9]: 97 % of control
T/C [10]: 106 % of control

Cc1ccc(S(=O)(=O)OC2=C3OC(=O)C4(C3C=CC=C2)C2C=CC=CC24)cc1 (stereo not given)
T/C [11]: 96 % of control
T/C [12]: 93 % of control
T/C (dose: 400.0 mg/kg/injection, schedule: Q01DX001 (ip), vehicle: saline with Tween-80): 90 % of control

Oc1ccc2[nH]cc(CCNCC3(O)OCC(O)C(O)C3O)c2c1 (stereo not given)
T/C (dose: 60.0 mg/kg/injection, schedule: Q01DX005 (ip), vehicle: saline): 98 % of control
T/C (dose: 120.0 mg/kg/injection, schedule: Q01DX005 (ip), vehicle: saline): 101 % of control
T/C (dose: 240.0 mg/kg/injection, schedule: Q01DX005 (ip), vehicle: saline): 91 % of control

COC(=O)c1nc(N)nc(C(=O)OC)c1C(=O)c1c(C)[nH]c2ccccc12
T/C [13]: 114 % of control
T/C [14]: 91 % of control

O=C(O)C1C(CCl)=C1CCl
T/C (dose: 60.0 mg/kg/injection, schedule: Q01DX005 (ip), vehicle: Klucel (hydroxypropylcellulose) (HPC)): 100 % of control
T/C (dose: 120.0 mg/kg/injection, schedule: Q01DX005 (ip), vehicle: Klucel (hydroxypropylcellulose) (HPC)): 104 % of control

O=C(O)COC(=O)c1ccc([N+](=O)[O-])cc1
T/C [15]: 99 % of control
T/C [16]: 108 % of control
T/C (dose: 400.0 mg/kg/injection, schedule: Q04DX003 (ip), vehicle: Klucel (hydroxypropylcellulose) (HPC)): 100 % of control

Nc1c(/C=C/c2cc3cc(C4=NCCN4)ccc3o2)[nH]c2cc(C3=NCCN3)ccc12
T/C [17]: 245 % of control
T/C [18]: 110 % of control and 227 % of control

O=S1(=O)C=C(c2ccccc2)C(c2ccccc2)=C1
T/C (dose: 12.5 mg/kg/injection, schedule: Q04DX003 (ip), vehicle: saline with Tween-80): 100 % of control
T/C (dose: 25.0 mg/kg/injection, schedule: Q04DX003 (ip), vehicle: saline with Tween-80): 100 % of control
T/C (dose: 50.0 mg/kg/injection, schedule: Q04DX003 (ip), vehicle: saline with Tween-80): 109 % of control

C#CCN(C)Cc1cc(OC)c(OC)c(OC)c1
T/C [4]: 102 % of control
T/C [5]: 94 % of control
T/C [6]: 102 % of control and 86 % of control
T/C (dose: 100.0 mg/kg/injection, schedule: Q01DX009 (ip), vehicle: saline): 95 % of control and 96 % of control

O=S(=O)(O)O.[N-]=C(N)/N=C(\[NH-])N.[N-]=C(N)/N=C(\[NH-])N.[N-]=C(N)NC(=[N-])N.[Rh+3]
T/C [4]: 100 % of control
T/C [5]: 103 % of control
T/C [6]: 107 % of control

CCNc1snc2c1c(=O)[nH]c(=O)n2Cc1ccccc1
T/C [4]: 86 % of control
T/C [5]: 90 % of control
T/C [6]: 98 % of control and 92 % of control

N#CC1CCC(c2ccccc2)(c2ccccc2)C1=O (stereo not given)
T/C [15]: 94 % of control
T/C [16]: 95 % of control

CS(=O)C/C(=C/CCCl)c1ccc(F)cc1 (stereo not given)
T/C [19]: 101 % of control
T/C [7]: 105 % of control
T/C [20]: 96 % of control

O=C(c1ccc(OCC(O)CN2CCN(c3ccccc3)CC2)cc1)c1cc2ccccc2c2ccccc12 (stereo not given)
T/C (dose: 100.0 mg/kg/injection, schedule: Q04DX003 (ip), vehicle: alcohol): 106 % of control
T/C (dose: 100.0 mg/kg/injection, schedule: Q04DX003 (ip), vehicle: other): 109 % of control
T/C (dose: 200.0 mg/kg/injection, schedule: Q04DX003 (ip), vehicle: alcohol): 120 % of control
T/C (dose: 200.0 mg/kg/injection, schedule: Q04DX003 (ip), vehicle: other): 105 % of control

Nc1ccc([N+](=O)[O-])cc1Nc1c2ccccc2nc2ccccc12
T/C [9]: 108 % of control
T/C [10]: 107 % of control

CC1OC(n2ccc(NC(=O)c3ccc(NC(=O)C(C)(N)CO)cc3)nc2=O)CCC1OC1OC(C)C(N(C)C)C(O)C1O (stereo not given)
T/C [21]: 100 % of control
T/C [8]: 100 % of control
T/C (dose: 400.0 mg/kg/injection, schedule: Q04DX003 (ip), vehicle: saline with Tween-80): 109 % of control

COc1ccc2cc1Oc1ccc(cc1)CC1c3c(cc(OC)c(OC)c3Oc3cc4c(cc3OC)CCN(C)C4C2)CCN1C (stereo not given)
T/C [11]: 103 % of control
T/C [12]: 92 % of control

CCSC(=O)N1c2ccc(OC)cc2C=CC1C#N (stereo not given)
T/C (dose: 44.0 mg/kg/injection, schedule: Q01DX009 (ip), vehicle: saline with Tween-80): 119 % of control
T/C [19]: 105 % of control
T/C (dose: 66.0 mg/kg/injection, schedule: Q01DX009 (ip), vehicle: saline with Tween-80): 119 % of control
T/C [21]: 109 % of control
T/C (dose: 150.0 mg/kg/injection, schedule: Q01DX009 (ip), vehicle: saline with Tween-80): 160 % of control
T/C [20]: 108 % of control
T/C [8]: 118 % of control
T/C (dose: 266.0 mg/kg/injection, schedule: Q04DX003 (ip), vehicle: saline with Tween-80): 124 % of control
T/C (dose: 400.0 mg/kg/injection, schedule: Q01DX009 (ip), vehicle: saline with Tween-80): 118 % of control
T/C (dose: 800.0 mg/kg/injection, schedule: Q01DX009 (ip), vehicle: saline with Tween-80): 96 % of control

O=C1c2ccccc2S(=O)(=O)CC12OC2c1ccc(Cl)cc1 (stereo not given)
T/C [22]: 88 % of control
T/C [23]: 88 % of control
T/C [24]: 94 % of control

CN(C)c1ccc(-c2nc3c4ccccc4c4ccccc4c3[nH]2)cc1
T/C [19]: 105 % of control
T/C [7]: 90 % of control
T/C [20]: 87 % of control

Nc1ncnc2nc(-c3ccc(C[P+](c4ccccc4)(c4ccccc4)c4ccccc4)cc3)[nH]c12
T/C [13]: 95 % of control
T/C [14]: 95 % of control
T/C (dose: 240.0 mg/kg/injection, schedule: Q01DX005 (ip), vehicle: saline with Tween-80): 95 % of control

CC1CCCC(C2CCCCCCC2O)N1 (stereo not given)
T/C [1]: 100 % of control
T/C [2]: 92 % of control
T/C [3]: 97 % of control

COc1ccc(OC)c2c(Cl)cc(NCCCN3CCN(CCCNc4cc(Cl)c5c(OC)ccc(OC)c5n4)CC3)nc12
T/C [17]: 97 % of control
T/C [18]: 93 % of control
T/C (dose: 200.0 mg/kg/injection, schedule: Q01DX005 (ip), vehicle: Klucel (hydroxypropylcellulose) (HPC)): 90 % of control

Cc1ccc(S(=O)(=O)N=C(N(C)C)N(C)C)cc1
T/C [22]: 99 % of control
T/C [23]: 100 % of control
T/C [24]: 104 % of control

CN(C)C(C#C[Si](C)(C)C)CO (stereo not given)
T/C (dose: 100.0 mg/kg/injection, schedule: Q04DX003 (ip), vehicle: saline): 104 % of control
T/C (dose: 200.0 mg/kg/injection, schedule: Q04DX003 (ip), vehicle: saline): 100 % of control
T/C (dose: 400.0 mg/kg/injection, schedule: Q04DX003 (ip), vehicle: saline): 97 % of control

COc1cc2c(cc1OC)C(Cc1cc(OC)c(OC)cc1[N+](=O)[O-])=[N+](C)CC2
T/C (dose: 25.0 mg/kg/injection, schedule: Q01DX009 (ip), vehicle: other): 98 % of control
T/C (dose: 50.0 mg/kg/injection, schedule: Q01DX009 (ip), vehicle: other): 96 % of control
T/C (dose: 100.0 mg/kg/injection, schedule: Q01DX009 (ip), vehicle: other): 102 % of control
